Source: patent publication US11639337B2, “Bicyclic heteroaryl derivatives and preparation and uses thereof” (XWPHARMA LTD., priority 2017, dated 2023)

Assays:
[1] = target: T1, human Nav1.7 voltage-gated sodium channels (Homo sapiens, UniProt Q15858); assay: Manual whole-cell patch-clamp, inhibition of hNav1.7 sodium current; type: cell-based; conditions: HEK293 cells stably transfected with SCN9A, holding potential -80 mV, peak current
T1 construct: expressed in transfected cells; host or cells: HEK293
Description: (§1) The potential inhibitory effect of Compound I-XXII on human voltage-gated sodium channels (hNav1.2/1.7) was evaluated by manual patch-clamp system according to the procedures as described. HEK293 cell line stably transfected with SCN2A/SCN9A gene was employed in this study and Tetrodotoxin (TTX) was used as a positive control to ensure the good quality of the assay.
(§2) General procedure: HEK 293 cells were stably transfected with human Nav1.2 or Nav1.7 voltage-gated sodium channels. The cells are routinely maintained in culture medium containing in 90% DMEM, 10% FBS, 100 U/mL Penicillin-Streptomycin and […] of G418. Before the assay, the cells were resuspended and plated onto the coverslips at 5×10^5 cells/per 6 cm cell culture dish for use. The voltage-gated Nav1.2 and Nav1.7 channel current was recorded at room temperature (25° C.) from randomly selected transfected cells under whole-cell patch clamp systems equipped with EPC10 USB (HEKA) or Multiclamp 700B amplifier (Molecular Devices), while electrical data was digitalized by Digidata1440A with sampling frequency over 10 kHz and acquired with Patchmaster or pClamp10 respectively. The glass electrode with resistance ranged from 2 to 3.5 MW was prepared by micropipette puller P-97 (Sutter Instrument) and filled with internal solutions (in mM): 140 KCl, 2 MgCl2, 10 EGTA, 10 HEPES and 5 MgATP (pH adjusted to 7.35 with KOH), while cells were bathed in extracellular solutions (in mM) 132 NaCl, 4 KCl, 3 CaCl2, 0.5 MgCl2, 11.1 glucose, and 10 HEPES (pH adjusted to 7.35 with NaOH). After rupture, the series membrane resistance was at least 50% compensated and capacitance was also compensated as well. All cells were voltage-clamped to a holding potential of −80 mV unless otherwise specified. The inward sodium currents were elicited by a 20-ms voltage pulse to 10 mV from −80 mV applied every 15 s. The sodium current was initially recorded for at least 120 seconds to assess the current stability, and only cells with recording parameters over acceptance criteria was finally used to assess the dose response to the local perfusion of Compound I-XXII. The blank vehicle was firstly applied to the patched cells in order to establish the recording baseline. After at least 5 min when the elicited sodium currents reaches stabilization, the test compound was perfused into recording chamber accumulatively from low to high concentrations. The positive control article, Tetrodotoxin (TTX), was also used to challenge same batch of cell in order to ensure the good performance of the recording system. All experiments were performed in triplicate for IC50 determination. Upon data acquisition, the PatchMaster or pClamfit software were used to extract the peak current from the original raw data, while the peak current inhibition was defined by equation as shown below.
(§3) The dose response curve for the test compound was plotted with % inhibition against the dose concentration of the test compound using Graphpad Prism 5.0 software, and then the data was fit to a sigmoid dose-response curve with variable slope for IC50 determination.

[2] = test system: SNL (Spinal Nerve Ligation) rats; assay: Mechanical allodynia in SNL (spinal nerve ligation) rats, von Frey; type: in vivo, Sprague-Dawley rats; conditions: 5 mg/kg i.p., 0.5 h time point post dose
Description: SNL model is a commonly used model to measure surgical induced neuropathic pain. The goal of the study was to evaluate the efficacy of Compound I to attenuate mechanical allodynia in SNL model in Sprague-Dawley rats.
In this study, SNL model was created following typical procedure and the approved drug Tapentadol (XW-TAP) was used as reference compound. Gabapentin was applied as positive control for model validation.
1) 5 mg/kg Compound I: Added 17.13 mg Compound I to 16.96 mL 0.5% methylcellulose in normal saline solution, vortexed to fully mix.
1) Rats were placed individually in a plastic enclosure with a mesh bottom which allowed full access to the paws. Rats were acclimated for 15 min prior to testing.
2) After acclimation, the mid-plantar hind paw was touched with one of a series of eight von Frey hairs with logarithmically incremental stiffness as follows: 3.61 (0.4 g), 3.84 (0.6 g), 4.08 (1 g), 4.31 (2 g), 4.56 (4 g), 4.74 (6 g), 4.93 (8 g) and 5.18 (15 g). The von Frey hairs were presented perpendicularly to the plantar surface with sufficient force to cause slight buckling against the paw and held for approximately 6-8 s. Stimulation was presented at intervals of 5 seconds, allowing for apparent resolution of any behavioral responses to previous stimulus. A positive response was noted if the paw was sharply withdrawn. […]

[3] = Rat pharmacokinetic study; type: in vivo, male Sprague-Dawley rats; conditions: male, Sprague-Dawley, plasma, PO, single dose 5.8 mg/kg
Description: For rat pharmacokinetic studies, male Sprague-Dawley rats were housed individually and fasted overnight before use. The animal dosing experiments were carried out in accordance to the National Institutes of Health Guide to the Care and Use of Laboratory Animals and the Animal Welfare Act. For Compound I, a single dose of 5.8 mg/kg was administered to each rat in two groups (n=5/group) via intravenous (IV) and oral (PO) administration, respectively. The vehicle used for IV administration was 10% (v/v) CremophorEL in 90% PBS. The vehicle used for PO administration was 0.5% (w/v) methylcellulose in normal saline solution. Blood samples were collected at specified time-points (pre-dose, 30 minutes, 1 hour, 2 hours, 4 hours, 7 hours, 8 hours, 12 hours, 24 hours) following administration to individual rats within IV and PO group. Blood samples were clotted on ice immediately, plasma samples were then isolated by centrifugation and stored frozen (−80° C.) until further analysis. The concentrations of Compound I were individually determined by LC/MS/MS assay. Various pharmacokinetic parameters were calculated using Phoenix™ WinNonlin® software. To quantify the bioconversion efficiency of the Compound I in the circulation system, the bioavailability of Compound I after PO administration was calculated.

[4] = target: T2, human Nav1.2 voltage-gated sodium channels (Homo sapiens, UniProt Q99250); assay: Manual whole-cell patch-clamp, inhibition of hNav1.2 sodium current; type: cell-based; conditions: HEK293 cells stably transfected with SCN2A, holding potential -80 mV, peak current
T2 construct: expressed in transfected cells; host or cells: HEK293
Description: as §1, §2, §3

[5] = test system: metastatic melanoma; conditions: Phase 2, patients with metastatic melanoma; cited from earlier work

T2 sequence (Q99250 whole entry): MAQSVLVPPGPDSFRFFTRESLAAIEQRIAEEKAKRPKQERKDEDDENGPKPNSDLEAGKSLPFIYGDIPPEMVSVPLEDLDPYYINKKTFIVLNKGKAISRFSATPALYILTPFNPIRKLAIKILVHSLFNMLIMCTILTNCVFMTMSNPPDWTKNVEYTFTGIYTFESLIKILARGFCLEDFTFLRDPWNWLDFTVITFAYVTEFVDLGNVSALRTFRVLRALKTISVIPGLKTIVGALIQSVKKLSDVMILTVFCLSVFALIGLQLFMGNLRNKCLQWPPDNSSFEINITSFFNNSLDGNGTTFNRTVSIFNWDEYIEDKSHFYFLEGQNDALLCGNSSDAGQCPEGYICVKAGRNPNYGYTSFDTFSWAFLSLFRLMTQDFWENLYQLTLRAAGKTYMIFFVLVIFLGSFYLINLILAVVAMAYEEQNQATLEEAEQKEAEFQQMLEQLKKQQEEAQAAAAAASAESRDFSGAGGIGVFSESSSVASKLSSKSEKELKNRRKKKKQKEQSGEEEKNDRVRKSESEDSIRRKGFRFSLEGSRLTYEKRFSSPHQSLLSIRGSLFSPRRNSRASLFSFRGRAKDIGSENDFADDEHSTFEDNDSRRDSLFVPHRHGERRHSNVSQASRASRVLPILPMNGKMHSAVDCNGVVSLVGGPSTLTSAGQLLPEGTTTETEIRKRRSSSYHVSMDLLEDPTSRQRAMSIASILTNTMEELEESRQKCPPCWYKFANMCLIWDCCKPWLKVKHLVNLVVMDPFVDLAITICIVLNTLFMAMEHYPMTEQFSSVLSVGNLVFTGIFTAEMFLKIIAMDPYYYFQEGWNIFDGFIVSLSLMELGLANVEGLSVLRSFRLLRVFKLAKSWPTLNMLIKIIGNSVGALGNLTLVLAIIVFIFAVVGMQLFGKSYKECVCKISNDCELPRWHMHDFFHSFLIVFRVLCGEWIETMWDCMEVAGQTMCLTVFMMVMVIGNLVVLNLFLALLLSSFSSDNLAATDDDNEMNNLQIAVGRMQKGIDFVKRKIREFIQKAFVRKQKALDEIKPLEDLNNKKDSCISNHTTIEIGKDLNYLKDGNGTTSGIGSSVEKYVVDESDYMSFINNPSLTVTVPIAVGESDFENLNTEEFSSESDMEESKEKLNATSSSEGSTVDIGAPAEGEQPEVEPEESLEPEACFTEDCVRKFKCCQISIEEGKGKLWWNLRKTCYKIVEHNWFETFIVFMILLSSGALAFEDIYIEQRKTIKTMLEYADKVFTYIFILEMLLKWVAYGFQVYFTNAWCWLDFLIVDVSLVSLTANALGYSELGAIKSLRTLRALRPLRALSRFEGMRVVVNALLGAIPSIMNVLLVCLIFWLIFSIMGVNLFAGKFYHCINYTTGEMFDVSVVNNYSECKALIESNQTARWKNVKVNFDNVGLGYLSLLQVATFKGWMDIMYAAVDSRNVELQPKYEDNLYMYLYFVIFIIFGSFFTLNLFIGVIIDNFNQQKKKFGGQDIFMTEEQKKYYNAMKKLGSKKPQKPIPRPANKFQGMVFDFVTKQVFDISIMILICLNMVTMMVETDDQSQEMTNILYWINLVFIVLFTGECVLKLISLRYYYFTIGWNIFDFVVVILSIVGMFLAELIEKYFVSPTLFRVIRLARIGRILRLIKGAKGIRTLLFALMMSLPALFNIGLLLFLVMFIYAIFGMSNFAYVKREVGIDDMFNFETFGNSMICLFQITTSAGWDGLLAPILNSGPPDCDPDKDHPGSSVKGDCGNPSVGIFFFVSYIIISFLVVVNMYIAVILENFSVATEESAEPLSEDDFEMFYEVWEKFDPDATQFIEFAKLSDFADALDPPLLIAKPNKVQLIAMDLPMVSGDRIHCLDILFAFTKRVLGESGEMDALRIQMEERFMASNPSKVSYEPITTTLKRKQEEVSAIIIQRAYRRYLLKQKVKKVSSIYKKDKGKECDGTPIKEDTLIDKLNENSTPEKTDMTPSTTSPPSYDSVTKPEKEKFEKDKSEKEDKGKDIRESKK
T1 sequence (Q15858 whole entry): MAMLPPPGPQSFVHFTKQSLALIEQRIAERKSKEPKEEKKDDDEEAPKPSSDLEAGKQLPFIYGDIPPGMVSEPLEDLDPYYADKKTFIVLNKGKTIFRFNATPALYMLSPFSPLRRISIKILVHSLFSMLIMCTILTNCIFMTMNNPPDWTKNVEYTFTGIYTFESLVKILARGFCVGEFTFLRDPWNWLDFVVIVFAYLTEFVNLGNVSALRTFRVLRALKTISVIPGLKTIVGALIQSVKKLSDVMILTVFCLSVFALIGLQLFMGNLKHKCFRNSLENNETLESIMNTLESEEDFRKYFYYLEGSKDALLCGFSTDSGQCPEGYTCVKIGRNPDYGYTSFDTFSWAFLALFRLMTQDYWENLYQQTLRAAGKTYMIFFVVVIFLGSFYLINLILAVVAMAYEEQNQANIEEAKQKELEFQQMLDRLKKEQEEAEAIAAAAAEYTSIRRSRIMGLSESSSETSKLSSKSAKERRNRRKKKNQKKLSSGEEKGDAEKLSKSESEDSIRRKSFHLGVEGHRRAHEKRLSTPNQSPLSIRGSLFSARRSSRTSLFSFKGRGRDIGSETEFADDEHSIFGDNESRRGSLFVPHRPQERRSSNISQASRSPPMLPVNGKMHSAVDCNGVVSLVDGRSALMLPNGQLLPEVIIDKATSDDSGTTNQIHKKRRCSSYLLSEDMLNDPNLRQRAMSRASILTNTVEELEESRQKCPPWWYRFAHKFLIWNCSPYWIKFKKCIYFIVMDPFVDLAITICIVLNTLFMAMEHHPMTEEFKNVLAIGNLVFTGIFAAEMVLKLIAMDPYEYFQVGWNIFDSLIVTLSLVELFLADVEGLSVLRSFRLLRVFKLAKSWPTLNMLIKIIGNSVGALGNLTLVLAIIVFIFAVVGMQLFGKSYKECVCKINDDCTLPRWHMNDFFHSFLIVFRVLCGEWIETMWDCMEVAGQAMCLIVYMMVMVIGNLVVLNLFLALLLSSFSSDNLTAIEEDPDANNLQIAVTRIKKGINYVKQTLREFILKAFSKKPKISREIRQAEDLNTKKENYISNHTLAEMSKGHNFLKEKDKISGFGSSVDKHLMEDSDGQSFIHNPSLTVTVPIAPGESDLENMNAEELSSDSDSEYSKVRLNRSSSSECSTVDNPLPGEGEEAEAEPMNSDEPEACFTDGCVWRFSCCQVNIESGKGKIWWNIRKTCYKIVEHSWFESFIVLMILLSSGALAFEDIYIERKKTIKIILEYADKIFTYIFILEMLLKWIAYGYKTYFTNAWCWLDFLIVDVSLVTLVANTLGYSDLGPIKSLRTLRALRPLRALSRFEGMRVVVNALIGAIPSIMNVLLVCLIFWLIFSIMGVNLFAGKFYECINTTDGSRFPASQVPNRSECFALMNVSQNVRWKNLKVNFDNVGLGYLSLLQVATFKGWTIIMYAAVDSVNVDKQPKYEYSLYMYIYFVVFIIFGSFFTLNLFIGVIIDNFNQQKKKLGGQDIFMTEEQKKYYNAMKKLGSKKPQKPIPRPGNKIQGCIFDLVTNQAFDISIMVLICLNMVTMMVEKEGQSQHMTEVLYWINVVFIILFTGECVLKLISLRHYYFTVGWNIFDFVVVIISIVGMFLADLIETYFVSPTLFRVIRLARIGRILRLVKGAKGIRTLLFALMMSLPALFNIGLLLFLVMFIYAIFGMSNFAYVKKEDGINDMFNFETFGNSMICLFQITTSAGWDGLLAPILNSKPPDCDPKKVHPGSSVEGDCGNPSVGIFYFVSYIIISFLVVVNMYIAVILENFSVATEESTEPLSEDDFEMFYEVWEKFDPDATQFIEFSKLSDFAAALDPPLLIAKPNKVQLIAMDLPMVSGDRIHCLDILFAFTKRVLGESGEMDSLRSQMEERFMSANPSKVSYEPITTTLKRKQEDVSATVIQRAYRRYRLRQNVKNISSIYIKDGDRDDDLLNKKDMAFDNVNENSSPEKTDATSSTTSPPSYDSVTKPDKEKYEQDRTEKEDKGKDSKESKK

Structure (SMILES) | IC50 [1] [nM] | IC50 [4] [nM] | further results
Nc1nc2ccc(S(F)(F)(F)(F)F)cc2s1 [Compound I, 6-(Pentafluorosulfanyl)benzo[d]thiazol-2-amine] | 682 | 4670 | anti-allodynic effect on SNL-induced mechanical allodynia [2]: reversed SNL-induced mechanical allodynia; AUC(0-t) [3]: 7690 ng·h/mL; Cmax [3]: 942 ng/mL; Tmax [3]: 2.3 h; half-life [3]: 7.11 h
Nc1nc2ccc(SC(F)(F)F)cc2[se]1 [Compound IX, 6-((Trifluoromethyl)thio)benzo[d][1,3]selenazol-2-amine] | 1170 | 15300 | –
Nc1nc2ccc(S(F)(F)(F)(F)F)cc2[se]1 [Compound V, 6-(Pentafluorosulfanyl)benzo[d][1,3]selenazol-2-amine] | 722 | 4370 | –
Nc1nc2ccc(C(F)(F)F)cc2[se]1 [Compound VI, 6-(Trifluoromethyl)benzo[d][1,3]selenazol-2-amine] | 745 | 10100 | –
Nc1nc2ccc(OC(F)(F)F)cc2[se]1 [Compound VII, 6-(Trifluoromethoxy)benzo[d][1,3]selenazol-2-amine] | 1360 | 18000 | –
Nc1nc2ccc(OC(F)(F)F)cc2s1 [Riluzole] | – | – | RECIST grade [5]: no overall improvement of RECIST grade
